Measurements from PMC5218480 (PLoS ONE, 2017).

Test system: MV-4-11 cells
Assay: Gene expression microarray analysis (Affymetrix PrimeView) and GSEA
Assay type: cell-based, human
Set-up: RFU PODN (11730768_x_at) / Fold change /veh PODN (11730768_x_at) / RFU LINC00158 (11744669_a_at) / Fold change /veh LINC00158 (11744669_a_at) / RFU DUSP10 (11751237_a_at) / Fold change /veh DUSP10 (11751237_a_at) / RFU ID3 (11757404_x_at) / Fold change /veh ID3 (11757404_x_at) / RFU PLEKHG5 (11737974_s_at) / Fold change /veh PLEKHG5 (11737974_s_at) / RFU LRRC4B (11730491_at) / Fold change /veh LRRC4B (11730491_at) / RFU GIMAP4 (11747438_a_at) / Fold change /veh GIMAP4 (11747438_a_at) / RFU KRT8 (11758183_x_at) / Fold change /veh KRT8 (11758183_x_at) / RFU CNN1 (11734310_a_at) / Fold change /veh CNN1 (11734310_a_at) / RFU VPS37D (11726825_at) / Fold change /veh VPS37D (11726825_at) / RFU C10orf10 (11716522_x_at) / Fold change /veh C10orf10 (11716522_x_at) / RFU KIR2DL2 /// KIR2DL4 /// KIR2DL5A /// KIR2DL5B /// KIR2DS1 /// KIR2DS2 /// KIR2DS3 /// KIR2DS4 /// KIR3DL3 /// KIR3DL3 /// KIR3DS1 (11738374_at) / Fold change /veh KIR2DL2 /// KIR2DL4 /// KIR2DL5A /// KIR2DL5B /// KIR2DS1 /// KIR2DS2 /// KIR2DS3 /// KIR2DS4 /// KIR3DL3 /// KIR3DL3 /// KIR3DS1 (11738374_at) / RFU C1QL1 (11718748_at) / Fold change /veh C1QL1 (11718748_at) / RFU TMPRSS4 (11747572_a_at) / Fold change /veh TMPRSS4 (11747572_a_at) / RFU HAMP (11756126_x_at) / Fold change /veh HAMP (11756126_x_at) / RFU RNFT2 (11725882_a_at) / Fold change /veh RNFT2 (11725882_a_at) / RFU NR4A2 (11747474_a_at) / Fold change /veh NR4A2 (11747474_a_at) / RFU ABCC12 (11746883_a_at) / Fold change /veh ABCC12 (11746883_a_at) / RFU TMEM136 (11760407_x_at) / Fold change /veh TMEM136 (11760407_x_at) / RFU CLDN22 /// WWC2 (11732394_at) / Fold change /veh CLDN22 /// WWC2 (11732394_at) / RFU HLA-DPB1 (11760878_x_at) / Fold change /veh HLA-DPB1 (11760878_x_at) / RFU SPINT1 (11716480_a_at) / Fold change /veh SPINT1 (11716480_a_at) / RFU GAP43 (11754022_s_at) / Fold change /veh GAP43 (11754022_s_at) / RFU A4GNT (11735810_at) / Fold change /veh A4GNT (11735810_at) / RFU PRB3 (11715151_x_at) / Fold change /veh PRB3 (11715151_x_at) / RFU TUBB4B (11761932_at) / Fold change /veh TUBB4B (11761932_at) / RFU CAPN14 (11732068_a_at) / Fold change /veh CAPN14 (11732068_a_at) / RFU TMCC2 (11721928_a_at) / Fold change /veh TMCC2 (11721928_a_at) / RFU IRGQ (11745062_a_at) / Fold change /veh IRGQ (11745062_a_at) / RFU FAM174B (11720279_a_at) / Fold change /veh FAM174B (11720279_a_at) / RFU TMPRSS4 (11748680_a_at) / Fold change /veh TMPRSS4 (11748680_a_at) / RFU FAM212B (11763350_a_at) / Fold change /veh FAM212B (11763350_a_at) / RFU PLEKHG5 (11743358_a_at) / Fold change /veh PLEKHG5 (11743358_a_at) / RFU ZSCAN30 (11745921_a_at) / Fold change /veh ZSCAN30 (11745921_a_at) / RFU CMKLR1 (11741424_a_at) / Fold change /veh CMKLR1 (11741424_a_at) / RFU LOC101060620 /// MAPK8IP1 (11723275_at) / Fold change /veh LOC101060620 /// MAPK8IP1 (11723275_at) / RFU SPTSSB (11747773_x_at) / Fold change /veh SPTSSB (11747773_x_at) / RFU PRSS12 (11739890_at) / Fold change /veh PRSS12 (11739890_at) / RFU BIN1 (11741810_x_at) / Fold change /veh BIN1 (11741810_x_at) / RFU WNT11 (11732464_a_at) / Fold change /veh WNT11 (11732464_a_at) / RFU C10orf10 (11716521_a_at) / Fold change /veh C10orf10 (11716521_a_at) / RFU C5orf56 (11738089_at) / Fold change /veh C5orf56 (11738089_at) / RFU CYB561 (11721691_x_at) / Fold change /veh CYB561 (11721691_x_at) / RFU ANKRD19P (11752326_a_at) / Fold change /veh ANKRD19P (11752326_a_at) / RFU OR2T12 /// OR2T33 /// OR2T8 (11738714_s_at) / Fold change /veh OR2T12 /// OR2T33 /// OR2T8 (11738714_s_at) / RFU VCAN (11748164_a_at) / Fold change /veh VCAN (11748164_a_at) / RFU JSRP1 (11732532_at) / Fold change /veh JSRP1 (11732532_at) / RFU KRTAP10-11 (11738290_x_at) / Fold change /veh KRTAP10-11 (11738290_x_at) / RFU MYO3A (11730013_a_at) / Fold change /veh MYO3A (11730013_a_at) / RFU EBF3 (11725865_a_at) / Fold change /veh EBF3 (11725865_a_at) / RFU CAMK2N1 (11719241_x_at) / Fold change /veh CAMK2N1 (11719241_x_at) / RFU C5orf56 (11738088_a_at) / Fold change /veh C5orf56 (11738088_a_at) / RFU OLFML3 (11715873_a_at) / Fold change /veh OLFML3 (11715873_a_at) / RFU LOC100653217 /// NTM (11731650_a_at) / Fold change /veh LOC100653217 /// NTM (11731650_a_at) / RFU MAPK11 (11762145_a_at) / Fold change /veh MAPK11 (11762145_a_at) / RFU FIZ1 (11724087_x_at) / Fold change /veh FIZ1 (11724087_x_at) / RFU OASL (11726364_x_at) / Fold change /veh OASL (11726364_x_at) / RFU SOX15 (11748057_x_at) / Fold change /veh SOX15 (11748057_x_at) / RFU CD79A (11719716_a_at) / Fold change /veh CD79A (11719716_a_at) / RFU HIST1H1D (11736915_at) / Fold change /veh HIST1H1D (11736915_at) / RFU CASKIN2 (11723855_a_at) / Fold change /veh CASKIN2 (11723855_a_at) / RFU LOC730098 (11760151_x_at) / Fold change /veh LOC730098 (11760151_x_at) / RFU OR4N2 (11742367_at) / Fold change /veh OR4N2 (11742367_at) / RFU PRRT2 (11749266_a_at) / Fold change /veh PRRT2 (11749266_a_at) / RFU SNX32 (11753110_a_at) / Fold change /veh SNX32 (11753110_a_at) / RFU CDHR5 (11726645_a_at) / Fold change /veh CDHR5 (11726645_a_at) / RFU RCAN1 (11760418_a_at) / Fold change /veh RCAN1 (11760418_a_at) / RFU FAM167A (11723789_a_at) / Fold change /veh FAM167A (11723789_a_at) / RFU FAM26E (11764081_at) / Fold change /veh FAM26E (11764081_at) / RFU ISYNA1 (11749810_s_at) / Fold change /veh ISYNA1 (11749810_s_at) / RFU ACY1 (11761880_at) / Fold change /veh ACY1 (11761880_at) / RFU 11764098_at / Fold change /veh 11764098_at / RFU SAMD14 (11745864_x_at) / Fold change /veh SAMD14 (11745864_x_at) / RFU NPB (11741838_a_at) / Fold change /veh NPB (11741838_a_at) / RFU TMPRSS6 (11731388_a_at) / Fold change /veh TMPRSS6 (11731388_a_at) / RFU KRTAP10-2 (11738614_at) / Fold change /veh KRTAP10-2 (11738614_at) / RFU ARHGAP8 /// PRR5-ARHGAP8 (11727945_x_at) / Fold change /veh ARHGAP8 /// PRR5-ARHGAP8 (11727945_x_at) / RFU KRTAP5-7 /// NADSYN1 (11734609_at) / Fold change /veh KRTAP5-7 /// NADSYN1 (11734609_at) / RFU RASL12 (11751679_a_at) / Fold change /veh RASL12 (11751679_a_at) / RFU CDKN2B (11736163_a_at) / Fold change /veh CDKN2B (11736163_a_at) / RFU PRF1 (11729649_at) / Fold change /veh PRF1 (11729649_at) / RFU, ZNF638 /// ZNF638-IT1 / Fold change vs veh, ZNF638 /// ZNF638-IT1 / RFU, PANK3 / Fold change vs veh, PANK3 / RFU, SH3YL1 / Fold change vs veh, SH3YL1 / RFU, ZEB2 / Fold change vs veh, ZEB2 / RFU, NRIP1 / Fold change vs veh, NRIP1 / RFU, PTTG1IP / Fold change vs veh, PTTG1IP / RFU, CAPN2 / Fold change vs veh, CAPN2 / RFU, MED14 / Fold change vs veh, MED14 / RFU, SNORA58 / Fold change vs veh, SNORA58 / RFU, C1orf63 / Fold change vs veh, C1orf63 / RFU, LRRFIP1 / Fold change vs veh, LRRFIP1 / RFU, NDUFAF7 / Fold change vs veh, NDUFAF7 / RFU, SLC12A2 / Fold change vs veh, SLC12A2 / RFU, IBTK / Fold change vs veh, IBTK / RFU, ESF1 / Fold change vs veh, ESF1 / Fold change vs veh, TMEM50B / RFU, TAOK1 / Fold change vs veh, TAOK1 / RFU, ACBD3 / Fold change vs veh, ACBD3 / RFU, TMA16 / Fold change vs veh, TMA16 / RFU, RWDD3 / Fold change vs veh, RWDD3 / RFU, BCAT1 / Fold change vs veh, BCAT1 / RFU, EDEM3 / Fold change vs veh, EDEM3 / RFU, TMEM33 / Fold change vs veh, TMEM33 / RFU, WDR75 / Fold change vs veh, WDR75 / RFU, AHCTF1 / Fold change vs veh, AHCTF1 / RFU, TFRC / Fold change vs veh, TFRC / RFU, ZDHHC17 / Fold change vs veh, ZDHHC17 / RFU, NOM1 / Fold change vs veh, NOM1 / RFU, ARL8B / Fold change vs veh, ARL8B / RFU, ZBTB11 / Fold change vs veh, ZBTB11 / RFU, TAMM41 / Fold change vs veh, TAMM41 / RFU, KIAA1704 /// LOC100996395 / Fold change vs veh, KIAA1704 /// LOC100996395 / RFU, ING1 / Fold change vs veh, ING1 / RFU, TRMT61B / Fold change vs veh, TRMT61B / RFU, FUBP3 / Fold change vs veh, FUBP3 / RFU, TP53 / Fold change vs veh, TP53 / RFU, TNKS2 / Fold change vs veh, TNKS2 / RFU, ZFP14 / Fold change vs veh, ZFP14 / RFU, ACTR2 / Fold change vs veh, ACTR2 / RFU, PPP3R1 / Fold change vs veh, PPP3R1 / RFU, PIK3R1 / Fold change vs veh, PIK3R1 / RFU, HNRNPA1 / Fold change vs veh, HNRNPA1 / RFU, RNF170 / Fold change vs veh, RNF170 / RFU, ZNF28 / Fold change vs veh, ZNF28 / RFU, RNGTT / Fold change vs veh, RNGTT / RFU, OGT / Fold change vs veh, OGT / RFU, BRD1 / Fold change vs veh, BRD1 / RFU, MARS / Fold change vs veh, MARS / RFU, ZNF655 / Fold change vs veh, ZNF655 / RFU, FAHD1 / Fold change vs veh, FAHD1 / RFU, BDP1 / Fold change vs veh, BDP1 / RFU, LRRCC1 / Fold change vs veh, LRRCC1 / RFU, ARID1A / Fold change vs veh, ARID1A / RFU, ZNF146 / Fold change vs veh, ZNF146 / RFU, ZNF330 / Fold change vs veh, ZNF330 / RFU, GPN3 / Fold change vs veh, GPN3 / RFU, C9orf123 / Fold change vs veh, C9orf123 / RFU, N4BP2L2 / Fold change vs veh, N4BP2L2 / RFU, ARFIP1 / Fold change vs veh, ARFIP1 / RFU, FAM179B / Fold change vs veh, FAM179B / RFU, BCL10 / Fold change vs veh, BCL10 / RFU, UHRF1BP1L / Fold change vs veh, UHRF1BP1L / RFU, BET1 / Fold change vs veh, BET1 / RFU, CNOT2 / Fold change vs veh, CNOT2 / RFU, ZNF268 / Fold change vs veh, ZNF268 / Fold change vs veh, ZNF507 / RFU, DGCR2 / Fold change vs veh, DGCR2 / RFU, WDSUB1 / Fold change vs veh, WDSUB1 / Fold change vs veh, HSP90B1 /// MIR3652 / RFU, ADSS / Fold change vs veh, ADSS / RFU, GK / Fold change vs veh, GK / RFU, ZNF148 / Fold change vs veh, ZNF148 / RFU, TAF9 / Fold change vs veh, TAF9 / RFU, SLC1A5 / Fold change vs veh, SLC1A5 / RFU, SLMO2 / Fold change vs veh, SLMO2 / RFU, ABCC4 / Fold change vs veh, ABCC4 / RFU, LOC101060439 /// RAP1B / Fold change vs veh, LOC101060439 /// RAP1B / RFU, RFX7 / Fold change vs veh, RFX7 / RFU, GTPBP10 / Fold change vs veh, GTPBP10 / RFU, CNEP1R1 / Fold change vs veh, CNEP1R1 / RFU, BIVM-ERCC5 /// ERCC5 / Fold change vs veh, BIVM-ERCC5 /// ERCC5 / RFU, ILF3 / Fold change vs veh, ILF3 / RFU 11762660_at / Fold change /veh 11762660_at / RFU VCAN (11757783_s_at) / Fold change /veh VCAN (11757783_s_at) / RFU DDX43 (11728927_at) / Fold change /veh DDX43 (11728927_at) / RFU KRT8 (11758188_x_at) / Fold change /veh KRT8 (11758188_x_at) / RFU NKD1 (11759106_at) / Fold change /veh NKD1 (11759106_at) / RFU SRD5A1 (11742802_a_at) / Fold change /veh SRD5A1 (11742802_a_at) / RFU TPSAB1 /// TPSB2 (11721975_s_at) / Fold change /veh TPSAB1 /// TPSB2 (11721975_s_at) / RFU GSTM3 (11746129_a_at) / Fold change /veh GSTM3 (11746129_a_at) / RFU IL23R (11737362_x_at) / Fold change /veh IL23R (11737362_x_at) / RFU TMEM51 (11727254_a_at) / Fold change /veh TMEM51 (11727254_a_at) / RFU PIWIL2 (11732686_x_at) / Fold change /veh PIWIL2 (11732686_x_at) / RFU ORM1 (11744905_x_at) / Fold change /veh ORM1 (11744905_x_at) / RFU CCDC152 (11743942_at) / Fold change /veh CCDC152 (11743942_at) / RFU ECM1 (11717891_a_at) / Fold change /veh ECM1 (11717891_a_at) / RFU IL23R (11748794_a_at) / Fold change /veh IL23R (11748794_a_at) / RFU TNFAIP8L3 (11732012_x_at) / Fold change /veh TNFAIP8L3 (11732012_x_at) / RFU MBOAT4 (11741988_at) / Fold change /veh MBOAT4 (11741988_at) / RFU 11764193_at / Fold change /veh 11764193_at / RFU TMEM53 (11763286_at) / Fold change /veh TMEM53 (11763286_at) / RFU MAGEB2 (11727129_at) / Fold change /veh MAGEB2 (11727129_at) / RFU TMEM200A (11744735_a_at) / Fold change /veh TMEM200A (11744735_a_at) / RFU CCDC152 (11751479_a_at) / Fold change /veh CCDC152 (11751479_a_at) / RFU FAM211A (11726209_a_at) / Fold change /veh FAM211A (11726209_a_at) / RFU RGS16 (11746705_a_at) / Fold change /veh RGS16 (11746705_a_at) / RFU VCAN (11755009_s_at) / Fold change /veh VCAN (11755009_s_at) / RFU RHOB (11743442_s_at) / Fold change /veh RHOB (11743442_s_at) / RFU RGS16 (11720943_a_at) / Fold change /veh RGS16 (11720943_a_at) / RFU RGS16 (11720944_at) / Fold change /veh RGS16 (11720944_at) / RFU, VPS4B / Fold change vs veh, VPS4B / RFU, CREB1 / Fold change vs veh, CREB1 / RFU, DNAJC13 / Fold change vs veh, DNAJC13 / RFU, GNAQ / Fold change vs veh, GNAQ / RFU, CDK5R1 / Fold change vs veh, CDK5R1 / RFU, ZRANB3 / Fold change vs veh, ZRANB3 / RFU, CUL4A / Fold change vs veh, CUL4A / RFU, CCNY / Fold change vs veh, CCNY / RFU, UFL1 / Fold change vs veh, UFL1 / RFU, COG3 / Fold change vs veh, COG3 / RFU, DIAPH2 / Fold change vs veh, DIAPH2 / RFU, SKA2 / Fold change vs veh, SKA2 / RFU, AFF3 / Fold change vs veh, AFF3 / RFU, LMF1 / Fold change vs veh, LMF1 / RFU, IPO11 / Fold change vs veh, IPO11 / RFU, DFFB / Fold change vs veh, DFFB / RFU, FOXP1 / Fold change vs veh, FOXP1 / RFU, CARD8 / Fold change vs veh, CARD8 / RFU, STRN3 / Fold change vs veh, STRN3 / RFU, ADK / Fold change vs veh, ADK / RFU, RASSF2 / Fold change vs veh, RASSF2 / RFU, WIPF1 / Fold change vs veh, WIPF1 / RFU, LARP1B / Fold change vs veh, LARP1B / RFU, RASA1 / Fold change vs veh, RASA1 / RFU, RB1 / Fold change vs veh, RB1 / RFU, PPFIA1 / Fold change vs veh, PPFIA1 / RFU, MAT2A / Fold change vs veh, MAT2A / RFU, CCT5 / Fold change vs veh, CCT5 / RFU, WDR92 / Fold change vs veh, WDR92 / RFU, CUX1 / Fold change vs veh, CUX1 / RFU, TTC7A / Fold change vs veh, TTC7A / RFU, TMEM135 / Fold change vs veh, TMEM135 / RFU, DEPTOR / Fold change vs veh, DEPTOR / RFU, CPM / Fold change vs veh, CPM / RFU, DNAJB6 / Fold change vs veh, DNAJB6 / RFU, CACNA2D3 / Fold change vs veh, CACNA2D3 / RFU, DTX4 / Fold change vs veh, DTX4 / RFU, TFCP2 / Fold change vs veh, TFCP2 / RFU, GMCL1 /// GMCL1P1 / Fold change vs veh, GMCL1 /// GMCL1P1 / RFU, AEBP2 / Fold change vs veh, AEBP2 / RFU, SNHG1 /// SNORD22 /// SNORD25 /// SNORD26 /// SNORD27 /// SNORD28 /// SNORD29 /// SNORD31 / Fold change vs veh, SNHG1 /// SNORD22 /// SNORD25 /// SNORD26 /// SNORD27 /// SNORD28 /// SNORD29 /// SNORD31 / Fold change (Aza/veh), C12orf56 (ProbeSet 11735607_a_at) / Fold change (ACY-1035/veh), C12orf56 (ProbeSet 11735607_a_at) / Fold change (Aza/veh), FGFR1OP (ProbeSet 11751329_s_at) / Fold change (ACY-1035/veh), FGFR1OP (ProbeSet 11751329_s_at) / Fold change (Aza/veh), VPS36 (ProbeSet 11739960_a_at) / Fold change (ACY-1035/veh), VPS36 (ProbeSet 11739960_a_at) / RFU SYPL1 (11715823_x_at) / Fold change /veh SYPL1 (11715823_x_at) / RFU IGFBP7 (11715501_s_at) / Fold change /veh IGFBP7 (11715501_s_at) / RFU REEP3 (11722064_at) / Fold change /veh REEP3 (11722064_at) / RFU IGLL1 (11728026_x_at) / Fold change /veh IGLL1 (11728026_x_at): dose or concentration left out as unconfirmed
Conditions: ProbeSet 11738335_x_at; LIST B

Q: Which “Fold change vs veh, TP53” value does the source give for `Nc1ncn([C@@H]2O[C@H](CO)[C@@H](O)[C@H]2O)c(=O)n1` [azacitidine] here?
A: 0.89
